# Experiments:
# equine RBCs / B. caballi = assay: Growth of B. caballi with CRY-treated horse RBCs; type: cell-based, Babesia caballi; settings: equine RBCs pre-incubated with 1 and 10 μM CRY for 3 and 6 h, 4 days
# Experimental: To investigate the hemolytic effect of CRY on host (bovine or equine) RBCs, bovine and equine RBCs were incubated with 1 and 10 μM of CRY for 3 and 6 h. The RBCs were washed thrice with phosphate-buffered saline (PBS) and mixed with B. divergens and B. caballi infected RBCs (iRBCs, recovered from −80 °C stock at our laboratory) harvested with a parasitemia of 8% and 3%, respectively and adjusted to 1% parasitemia with fresh RBCs. In a 24-well plate, 100 μl of iRBCs was added to 900 μl of complete medium and the parasite growth was monitored daily by microscopic examination of a Giemsa-stained blood smear for 4 days.
# [1] = Hematology profiles, body weight and adverse effects of treated B. microti-infected mice; type: in vivo; settings: CRY administered i.p.
# Experimental: The promising effect of CRY in vitro encouraged us to evaluate its in vivo effects against B. microti in mice. The assay was conducted in accordance with the previously described protocol. In two separate trials, 35 female 8-week-old BALB/c mice, housed under a pathogen-free environment with controlled humidity, temperature (22°C) and a 12 h light/ dark cycle were caged in seven groups, each group consisting of five mice. Six groups were i.p. injected with 0.5 ml of inoculum (1×10^7 B. microti iRBCs), while the seventh group was left uninfected and untreated to act as a negative control. When the average parasitemia in all infected mice reached approximately 1%, the 5-day drug treatment was initiated. […] Parasitemia and hematology profiles (RBCs, hemoglobin (HGB), and HCT) were monitored every 2 and 4 days by microscopic examination and hematology analyzer (Celltac α MEK-6450, Nihon Kohden Corporation, Tokyo, Japan), respectively. […]
# The IC50 values of CRY, DA, CF, and AQ were determined using the nonlinear regression curve fit in GraphPad Prism (GraphPad Software Inc., San Diego, CA, USA). Combination index (CI) values for the drug combination were calculated using CompuSyn software, and the degree of synergism was determined as the weighted average of CI values using a formula [(1 x IC50) + (2 x IC75) + (3 x IC90) + (4 x IC95)]/10 [30]. […]
# P. berghei = tested on: P. berghei; parameters: method as in PMID 11543688; settings: no apparent toxicity; cited from earlier work
smiles,measurement,setting,value
"Cn1c2c3ccccc3nc-2cc2ccccc21 [CRY, Cryptolepine hydrate]","multiplication of B. caballi, CRY-treated RBCs versus normal RBCs",equine RBCs / B. caballi,did not significantly differ
same,adverse effects in mice,[1],no apparent adverse effects
same,suppression of P. berghei parasitemia in mice,P. berghei,80.5%

# From article PMC7451656, “In vitro and in vivo growth inhibitory activities of cryptolepine hydrate against several Babesia species and Theileria equi” (PLoS Neglected Tropical Diseases, 2020)
